Test results published in publication PMC7504435, “Combined Protein- and Ligand-Observed NMR Workflow to Screen Fragment Cocktails against Multiple Proteins: A Case Study Using Bromodomains” (Molecules, 2020).

Tests used:
BPTF bromodomain = BPTF bromodomain (Homo sapiens, UniProt Q12830); assay: 1H CPMG NMR deconvolution of hit mixtures, BPTF; format: binding; design: deconvolution of the hit mixtures using the non-fluorine-labeled bromodomains; made in house; host or cells: E. coli BL21(DE3); details: 10 µM protein, 100 µM ligand
Protocol: (§1) The second step is a ^1H CPMG NMR deconvolution of the hit mixtures using the non-fluorine-labeled bromodomains. ^1H CPMG NMR employs a T2 filter to take advantage of the difference in transverse relaxation time between protein and small molecules to filter out the bound-state ligand(s). Unlike the PrOF NMR assay, a single protein is assayed in each experiment. A binding event is characterized by a decrease in ligand resonance intensity from the ligand alone spectrum to the ligand + protein spectrum. A hit is defined as a decrease in resonance intensity ≥ 20%. The ^1H CPMG NMR assay can be tuned by changing the protein or ligand concentration, filter length (Figure 1), or hit criteria depending on how stringent the desired hit rate is. The number of ^1H CPMG NMR deconvolution experiments is directly informed from the first step. If a mixture from the first step was only a hit for one protein, a single ^1H CPMG NMR deconvolution experiment is needed. If a mixture from the first step was a hit for both proteins, two separate ^1H CPMG NMR deconvolutions experiments are needed to determine the fragments that bind to each protein.
(§2) ^1H CPMG NMR. ^1H CPMG NMR screen data were acquired on Bruker Avance III HD 500 with the 5 mm Prodigy TCI cryoprobe inverse cryoprobe (^1H 2500:1 S/N). Competition ^1H CPMG NMR data were acquired on Bruker 700 MHz Avance with a CryoProbe 5 mm TXI (^1H S:N with H2O suppression (2mM sucrose) - 900:1) and excitation sculpting water suppression. Proteins were present at 10 µM in 50 mM phosphate, 100 mM NaCl, pH 7.4 in 100% D2O. In separate NMR tubes, a ^1H CPMG NMR pulse was applied to a 1) mixture of ligands (individual ligands present at 100 µM for the screen and 50 µM for competition experiments) and 2) ligands + protein. […] For the competition experiments, τ was increased to 4.0 ms.

PfGCN5 bromodomain [1] = molecular target: T1, PfGCN5 bromodomain (Plasmodium falciparum, UniProt Q8IB67); assay: 1H CPMG NMR deconvolution of hit mixtures, PfGCN5; format: binding; details: 10 µM protein, 100 µM ligand
T1 sequence (Q8IB67 entry or part of it): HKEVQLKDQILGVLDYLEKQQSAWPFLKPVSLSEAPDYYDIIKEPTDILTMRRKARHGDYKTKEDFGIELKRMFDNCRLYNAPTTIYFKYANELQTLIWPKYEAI
Protocol: as §1, §2

BRD4 D1 = details: previous screen; NC = noncompetitive with JQ1 in 1H CPMG competition; cited from earlier work
PfGCN5 bromodomain [2] = molecular target: T1, PfGCN5 bromodomain; assay: biochemical; format: binding
Protocol: The screening workflow consists of two dependent steps: 1) a PrOF NMR screen of the 5FW-labeled proteins and a cocktail of 4–5 fragments in a single NMR tube; 2) a ^1H CPMG NMR binding assay to deconvolute the hit mixtures for each protein (Figure 1). In the first step, a dual-protein PrOF NMR spectrum was obtained in which 5FW-PfGCN5, 5FW-BPTF (~ 50 µM each) and mixtures of fragments (400 µM individual fragment) were present in the same NMR tube. […] Chemical shift perturbations indicating a ligand binding event were based on a prior cutoff of Δδ ≥ 0.030 ppm as the definition for a hit mixture. This cutoff was based on a statistical analysis of chemical shift perturbations from a prior BRD4 D1 fragment screen and are described further in the experimental section and in Table S2.
PrOF NMR. PrOF NMR spectra were obtained on a Bruker Avance III HD 500 with the 5 mm Prodigy TCI inverse cryoprobe (^19F S:N 2000:1). […] The DMSO concentration for all experiments was kept constant at 1%. […] For the PrOF NMR screen, 5FW-BPTF and 5FW-PfGCN5 (35–40 µM in 50 mM phosphate, 100 mM NaCl, pH 7.4) were tested with mixtures of 4–5 fragments, where each individual fragment was 400 µM. […] A 10 Hz line broadening was applied. Titrations were fit to Equation (2), where p is the protein concentration and L is the ligand concentration. (2) Δδ=Δδmax × (Kd+P+L ) − (((Kd + P + L )^2) − 4PL)/2P
A PrOF NMR binding event is characterized as a change in chemical shift (Δδ) from the protein-only spectrum to the protein + fragment mixture spectrum. We used a prior cutoff of Δδ ≥ 0.030 ppm as the definition of a hit mixture, based on a statistical analysis of chemical shift perturbations from a prior BRD4 D1 fragment screen.

BPTF CPMG % decrease (BPTF bromodomain) [%]	SMILES	PfGCN5 CPMG % decrease (PfGCN5 bromodomain [1]) [%]	other results
32	COC(CNC(=O)C1CN(C(=O)c2cc(C)on2)C1)OC [Fragment F6125-0675]		
	CC(C)CC(=O)NCc1nccc(N(C)C)n1 [Fragment F6438-1301]	50	
	Cc1ccc(S(=O)(=O)O)cc1.N#CC1CNCCO1 [Fragment F8880-7458]	24	
	Cc1cc(C(=O)N2CC(N3C(=O)CSC3=O)C2)n(C)n1 [Fragment F6473-4843]	25	
	CS(=O)(=O)NCC(c1ccoc1)N1CCSCC1 (centres unmarked) [Fragment F6353-5787]	40	
55	Cc1cc(-c2nnc(NC(=O)C3CC3)o2)nn1C [Fragment F5036-0073]		Kd (BRD4 D1): 1200 µM
	CCC(=O)NCc1nc(C)cc(N2CCOCC2)n1 [Fragment F6438-0864]	67	
	CC(C)(C)OC(=O)N1CCC2CNCC21 (centres unmarked) [Fragment F1905-6593]	21	
	COCCCn1c(C(=O)O)cc2c(=O)n(C)c(=O)n(C)c21 [Fragment F9995-1074]	41	
53	CCCCC(=O)Nc1sc(C)c(C)c1C(N)=O [Fragment F2590-0203]		
	CC12CCC3(C)OCC(CO)(CO1)N23 (centres unmarked) [Fragment F1983-0015]	50	
48	CC(C)(C)C(O)CCNC(=O)COc1ccc(F)cc1 (centres unmarked) [Fragment F6190-0594]		
23	Cc1nnc(CN)o1.Cl [Fragment F2135-1033]		
23	CSCCC(C)(O)CNC(=O)NC1CCOCC1 (centres unmarked) [Fragment F6089-9820]		
	O=C1CCCC2CN(Cc3ccccc3)CC12 (centres unmarked) [Fragment F1905-6609]	50	
48	OCC1CCCN1c1cccc(C(F)(F)F)n1 (centres unmarked) [Fragment F6541-4533]		
23	CC(=O)NCC1COCCN1.CC(=O)NCC1COCCN1.Cl.Cl.Cl (centres unmarked) [Fragment F2147-1723]		
	CCOC(=O)Nc1cc(-c2ccc(C)c(NS(C)(=O)=O)c2)nn2c(C)nnc12 [bromosporine, reference compound]		PrOF NMR titration with 5FW-PfGCN5, result in words (PfGCN5 bromodomain [2]): slow exchange kinetics
36	O=C(NCCC(O)C1CC1)Nc1ccccc1Cl (centres unmarked) [Fragment F6190-0472]		
63	CC(C)(C)NC(=O)c1cnc2n(c1=O)CCS2 [Fragment F0550-0006]		

BPTF CPMG % decrease (BPTF bromodomain) [%]	SMILES	PfGCN5 CPMG % decrease (PfGCN5 bromodomain [1]) [%]	other results
38	CCOCCCNc1ncnc2c1cnn2C [Fragment F1852-0063]		
	CC(C)(C)C(=O)N1CCSC(c2ccccc2)CC1 (centres unmarked) [Fragment F6481-0067]	53	
	CC(C)C1NC(=O)CNC1=O (centres unmarked) [Fragment F2147-0955]	50	
54	c1cc(OCC2CO2)ccc1OCC1CO1 (centres unmarked) [Fragment F0777-0005]		
29	Cc1cc(C)n(CC2CCNCC2)n1.Cl.Cl [Fragment F2145-0759]		
	Cc1nc(N2CCCC2)nc(C)c1NS(C)(=O)=O [Fragment F6438-0300]	42	
	O=C(C1CC=CCC1)N1CCC(c2ccc3c(c2)OCO3)C1 (centres unmarked) [Fragment F6518-4331]	58	
	COc1ccccc1C(CNC(=O)C1CC1)OC (centres unmarked) [Fragment F6451-0004]	26	
	CCCCS(=O)(=O)N1CC(S(=O)(=O)CC(C)C)C1 [Fragment F6442-1973]	26	
	CC(C)CS(=O)(=O)C1CN(S(=O)(=O)C(C)C)C1 [Fragment F6442-1971]	22	
29	CC(C)(C)OC(=O)N1CCCC(C(=O)O)C1 (centres unmarked) [Fragment F2158-1186]		
46	C=CCNC1CCN(C)C1=O (centres unmarked) [Fragment F1905-0298]		
33	O=C1CSCCN1 [Fragment F0848-0336]		
23	O=C1NCCN1C(=O)NCC(c1ccsc1)N1CCC1 (centres unmarked) [Fragment F6353-7315]		
36	Cc1nnc(SCC(=O)N2CCCCCC2)n(N)c1=O [Fragment F1847-0012]		
34	CC(C)Nc1nc2c(c(=O)[nH]c(=O)n2C)n1CC(O)CO (centres unmarked) [Fragment F2477-0016]		
	COCC(=O)NC(C)Cc1ccc2c(c1)CCO2 (centres unmarked) [Fragment F6356-0896]	25	
	Cc1onc(N)c1S(=O)(=O)N1CCC(C)CC1 [Fragment F2158-1788]	40	
40	Cc1csc(NC(=O)C2CCNCC2)n1.Cl [Fragment F2158-1471]		
46	CCCSc1nnc2[nH]c(=O)c(C)c(C)n12 [Fragment F2513-0609]		

SMILES	BPTF CPMG % decrease (BPTF bromodomain) [%]	PfGCN5 CPMG % decrease (PfGCN5 bromodomain [1]) [%]	other results
COC(C)(CNS(C)(=O)=O)c1cccc(Cl)c1 (centres unmarked) [Fragment F6452-1288]	32	57	
O=C(C1CC1)N1CCCC(Cc2nc(C3CC3)no2)C1 (centres unmarked) [Fragment F6497-0456]	100	100	
CCNc1cc(NCCNC(=O)CC(C)C)nc(C)n1 [Fragment F5626-0058]	50	47	
CCCCNc1nc2c([nH]1)c(=O)n(C)c(=O)n2C [Fragment F3176-0122]	80	77	Kd (BRD4 D1): 2500 µM
CCC(C)Sc1nnc(-c2cn(C)nc2OC)n1CC (centres unmarked) [Fragment F5003-0141]	52	36	
CCCC(=O)Nc1cc2c3c(c1)CC(=O)N3CCC2 [Fragment F2666-0003]	54	100	Kd (BRD4 D1): 840 µM
CC(C)C(=O)N1CCN(c2cnnc(N(C)C)c2)CC1 [Fragment F6438-1468]	62	100	
CC(C)(C)OC(=O)N1CC(Oc2ncccn2)C1 [Fragment F2158-1792]	54	68	
Cc1c(C(=O)O)n[nH]c1C1CC1 [Fragment F2185-0055]	31	29	
Cc1nc(NCCNC(=O)C(C)C)cc(N2CCCC2)n1 [Fragment F5626-0027]	77	75	
Cc1nnc(C2CCN(C(=O)c3ccsc3)CC2)s1 [Fragment F5496-0578]	55	83	
C1CC2NCCOC2C1.Cl (centres unmarked) [Fragment F1905-0651]	75		
CCCCSc1nnc(-c2cn(C)nc2OC)n1CC [Fragment F5003-0140]	52	36	
CCOC(=O)c1sc(NC(=O)C2CCOC2)cc1C (centres unmarked) [Fragment F0882-2747]	54	63	Kd (BRD4 D1): 660 µM
Cc1ccc(C)c(S(=O)(=O)N2CCCC2C(=O)O)c1 (centres unmarked) [Fragment F2189-0042]	35	32	
CCOC(=O)c1c(NC(C)=O)sc(C)c1C [Fragment F0777-0038]	100	100	Kd (BRD4 D1): 820 µM
COc1ccc(C2CCCCN(S(C)(=O)=O)C2)cc1 (centres unmarked) [Fragment F6464-1254]	69	33	
CC(C(=O)NCc1cnn2c1CCCC2)n1cccn1 (centres unmarked) [Fragment F6513-5793]	72	49	
